Test results as given in PubChem BioAssay AID256 (DTP/NCI, 2004).
Several values for one entry are separate records, joined by “and”; a condition that tells them apart may be missing. Equal values may be shown once. Toxic doses and inconclusive results are not listed.

Test system: CD2F1 mice, L1210 leukemia ip, survival T/C
Assay: NCI In Vivo Anticancer Drug Screen. Data for tumor model L1210 Leukemia (intraperitoneal) in CD2F1 (CDF1) mice
Conditions: higher = longer survival
Outline: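 Read-out first: treated-group measurement over vehicle-control measurement, expressed as a ratio. Animals bore a transplanted tumor line and were dosed with compound or vehicle.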

[1] = endpoint: mean survival time, dose: 12.5 mg/kg/injection, schedule: Q01DX009 (ip), vehicle: saline with Tween-80
[2] = endpoint: mean survival time, dose: 25.0 mg/kg/injection, schedule: Q01DX009 (ip), vehicle: saline with Tween-80
[3] = endpoint: mean survival time, dose: 100.0 mg/kg/injection, schedule: Q04DX003 (ip), vehicle: saline with Tween-80
[4] = endpoint: mean survival time, dose: 200.0 mg/kg/injection, schedule: Q04DX003 (ip), vehicle: saline with Tween-80
[5] = endpoint: mean survival time, dose: 400.0 mg/kg/injection, schedule: Q04DX003 (ip), vehicle: saline with Tween-80
[6] = endpoint: mean survival time, dose: 100.0 mg/kg/injection, schedule: Q01DX009 (ip), vehicle: saline with Tween-80
[7] = endpoint: mean survival time, dose: 100.0 mg/kg/injection, schedule: Q04DX003 (ip), vehicle: Klucel (hydroxypropylcellulose) (HPC)
[8] = endpoint: mean survival time, dose: 200.0 mg/kg/injection, schedule: Q04DX003 (ip), vehicle: Klucel (hydroxypropylcellulose) (HPC)
[9] = endpoint: mean survival time, dose: 400.0 mg/kg/injection, schedule: Q04DX003 (ip), vehicle: Klucel (hydroxypropylcellulose) (HPC)
[10] = endpoint: mean survival time, dose: 100.0 mg/kg/injection, schedule: Q04DX002 (ip), vehicle: saline with Tween-80
[11] = endpoint: mean survival time, dose: 200.0 mg/kg/injection, schedule: Q04DX002 (ip), vehicle: saline with Tween-80
[12] = endpoint: mean survival time, dose: 400.0 mg/kg/injection, schedule: Q04DX002 (ip), vehicle: saline with Tween-80

**Q.** For `Nc1cc2c(c[n+](CCCBr)c3ccccc23)c2ccccc12`, which T/C (endpoint: mean survival time, dose: 3.13 mg/kg/injection, schedule: Q04DX003 (ip), vehicle: other) is on record?
**A.** The T/C was 111 % of control.

**Q.** And the T/C (endpoint: mean survival time, dose: 6.25 mg/kg/injection, schedule: Q04DX003 (ip), vehicle: other)?
**A.** The T/C was 122 % of control.

**Q.** What about the T/C (endpoint: mean survival time, dose: 12.5 mg/kg/injection, schedule: Q04DX003 (ip), vehicle: other) of the same compound?
**A.** The T/C was 120 % of control.

**Q.** What about the T/C (endpoint: mean survival time, dose: 25.0 mg/kg/injection, schedule: Q04DX003 (ip), vehicle: other) of the same compound?
**A.** Its T/C is 109 % of control.

**Q.** What about the T/C (endpoint: mean survival time, dose: 50.0 mg/kg/injection, schedule: Q04DX003 (ip), vehicle: other) of the same compound?
**A.** Its T/C is 87 % of control.

**Q.** How did the T/C [1] turn out when `COc1cccc(C(=O)C=C(C(F)(F)F)C(F)(F)F)c1` was run?
**A.** The T/C was 104 % of control.

**Q.** And the T/C [2]?
**A.** Its T/C is 109 % of control.

**Q.** For `CC(=O)Oc1cc(C(C)(C)C)c(OC(C)=O)c(N=[N+]=[N-])c1C(C)(C)C`, which T/C [3] is on record?
**A.** The T/C was 96 % of control.

**Q.** And the T/C [4]?
**A.** The T/C was 101 % of control.

**Q.** What about the T/C [5] of the same compound?
**A.** The T/C was 96 % of control.

**Q.** With `Cc1ccc(Cl)c2ccccc12` as the compound, how does the T/C [1] read?
**A.** Its T/C is 97 % of control.

**Q.** What about the T/C [2] of the same compound?
**A.** The T/C was 100 % of control.

**Q.** And the T/C (endpoint: mean survival time, dose: 50.0 mg/kg/injection, schedule: Q01DX009 (ip), vehicle: saline with Tween-80)?
**A.** The T/C was 97 % of control.

**Q.** What about the T/C [6] of the same compound?
**A.** The T/C was 94 % of control.

**Q.** What does the source list for `O=C(OCC#CC#CCOC(=O)c1cccc2ccccc12)c1cccc2ccccc12`?
**A.** T/C [7]: 100 % of control; T/C [8]: 102 % of control; T/C [9]: 96 % of control

**Q.** `Nc1c[nH]c(=O)[nH]c1=O` was tested. Which T/C [10] did it give?
**A.** The T/C was 101 % of control.

**Q.** What about the T/C [11] of the same compound?
**A.** Its T/C is 109 % of control.

**Q.** And the T/C [12]?
**A.** Its T/C is 109 % of control.

**Q.** How did the T/C [3] turn out when `CCN(CC)CCNc1c2ccc(Cl)cc2nc2c1c(C)nn2C` was run?
**A.** Its T/C is 95 % of control.

**Q.** What about the T/C [4] of the same compound?
**A.** The T/C was 100 % of control.

**Q.** And the T/C [5]?
**A.** Its T/C is 100 % of control.

**Q.** `CCOC(=O)Nc1ccc(F)cc1C` was tested. Which T/C [3] did it give?
**A.** Its T/C is 97 % of control.

**Q.** And the T/C [4]?
**A.** Its T/C is 97 % of control.

**Q.** What about the T/C [5] of the same compound?
**A.** The T/C was 95 % of control.

**Q.** With `Cc1c(Cl)cccc1NC(=O)c1ccc([N+](=O)[O-])cc1` as the compound, how does the T/C [3] read?
**A.** The T/C was 95 % of control.

**Q.** And the T/C [4]?
**A.** The T/C was 101 % of control.

**Q.** And the T/C [5]?
**A.** Its T/C is 86 % of control.

**Q.** For `N#Cc1ncc(Cl)cc1[N+](=O)[O-]`, which T/C (endpoint: mean survival time, dose: 12.5 mg/kg/injection, schedule: Q04DX003 (ip), vehicle: saline with Tween-80) is on record?
**A.** Its T/C is 101 % of control.

**Q.** What about the T/C (endpoint: mean survival time, dose: 25.0 mg/kg/injection, schedule: Q04DX003 (ip), vehicle: saline with Tween-80) of the same compound?
**A.** The T/C was 101 % of control.

**Q.** And the T/C (endpoint: mean survival time, dose: 50.0 mg/kg/injection, schedule: Q04DX003 (ip), vehicle: saline with Tween-80)?
**A.** Its T/C is 101 % of control.

**Q.** `O=C1C(Cl)=C(c2ccccc2)C(OC2(c3ccccc3)C(Cl)C(=O)C(Cl)C2c2ccccc2)(c2ccccc2)C1Cl` (stereo not drawn) was tested. Which T/C [10] did it give?
**A.** Its T/C is 96 % of control.

**Q.** And the T/C [11]?
**A.** Its T/C is 101 % of control.

**Q.** And the T/C [12]?
**A.** Its T/C is 96 % of control.

**Q.** `[Cl][Pt+2]([Cl])([Cl])[Cl].[NH-]CC1(C[NH-])CCCC1` was tested. Which T/C (endpoint: median survival time, dose: 3.12 mg/kg/injection, schedule: Q04DX003 (ip), vehicle: saline) did it give?
**A.** Its T/C is 171 % of control and 174 % of control.

**Q.** What about the T/C (endpoint: median survival time, dose: 6.25 mg/kg/injection, schedule: Q04DX003 (ip), vehicle: saline) of the same compound?
**A.** The T/C was 174 % of control and 217 % of control.

**Q.** What about the T/C (endpoint: median survival time, dose: 12.5 mg/kg/injection, schedule: Q04DX003 (ip), vehicle: saline) of the same compound?
**A.** The T/C was 280 % of control and 109 % of control.

**Q.** What about the T/C (endpoint: median survival time, dose: 25.0 mg/kg/injection, schedule: Q04DX003 (ip), vehicle: saline) of the same compound?
**A.** The T/C was 174 % of control.

**Q.** How did the T/C [7] turn out when `C=CC[N+]12CC=C3COC(=O)C(C)(O)C(C)(O)C(C)C(=O)OC(CC1)C32` (stereo not drawn) was run?
**A.** The T/C was 101 % of control.

**Q.** What about the T/C [8] of the same compound?
**A.** The T/C was 90 % of control.

**Q.** What about the T/C [9] of the same compound?
**A.** The T/C was 93 % of control.

**Q.** Which results are given for `O=Cc1cccc(O)c1O`?
**A.** T/C [3]: 96 % of control; T/C [4]: 102 % of control; T/C [5]: 103 % of control

**Q.** What does the source list for `O=C(O)c1ccsc1`?
**A.** T/C (endpoint: mean survival time, dose: 37.5 mg/kg/injection, schedule: Q04DX003 (ip), vehicle: saline with Tween-80): 97 % of control; T/C (endpoint: mean survival time, dose: 75.0 mg/kg/injection, schedule: Q04DX003 (ip), vehicle: saline with Tween-80): 97 % of control

**Q.** How did the T/C [6] turn out when `O=S(=O)(Oc1ccc(OS(=O)(=O)c2ccccc2)cc1)c1ccccc1` was run?
**A.** Its T/C is 96 % of control.

**Q.** What about the T/C (endpoint: mean survival time, dose: 200.0 mg/kg/injection, schedule: Q01DX009 (ip), vehicle: saline with Tween-80) of the same compound?
**A.** The T/C was 98 % of control.

**Q.** And the T/C (endpoint: mean survival time, dose: 400.0 mg/kg/injection, schedule: Q01DX009 (ip), vehicle: saline with Tween-80)?
**A.** The T/C was 107 % of control.

**Q.** With `O=c1[nH]c(=S)[nH]c(-c2ccccc2)c1CCO` as the compound, how does the T/C [3] read?
**A.** The T/C was 97 % of control.

**Q.** What about the T/C [4] of the same compound?
**A.** The T/C was 101 % of control.

**Q.** What about the T/C [5] of the same compound?
**A.** Its T/C is 91 % of control.
